Measurements as given in publication PMC3883290, “Functional characterization in Xenopus oocytes of Na^+ transport systems from durum wheat reveals diversity among two HKT1;4 transporters” (Journal of Experimental Botany, 2013).

Target: T1, TdHKT1;4-2 (Triticum turgidum, UniProt U5YMY4)
T1 construct: full-length coding region (ORF 1686 bp, 562 residues as printed) in pGEMXho, cRNA expressed in Xenopus laevis oocytes
T1 sequence (U5YMY4 1-561): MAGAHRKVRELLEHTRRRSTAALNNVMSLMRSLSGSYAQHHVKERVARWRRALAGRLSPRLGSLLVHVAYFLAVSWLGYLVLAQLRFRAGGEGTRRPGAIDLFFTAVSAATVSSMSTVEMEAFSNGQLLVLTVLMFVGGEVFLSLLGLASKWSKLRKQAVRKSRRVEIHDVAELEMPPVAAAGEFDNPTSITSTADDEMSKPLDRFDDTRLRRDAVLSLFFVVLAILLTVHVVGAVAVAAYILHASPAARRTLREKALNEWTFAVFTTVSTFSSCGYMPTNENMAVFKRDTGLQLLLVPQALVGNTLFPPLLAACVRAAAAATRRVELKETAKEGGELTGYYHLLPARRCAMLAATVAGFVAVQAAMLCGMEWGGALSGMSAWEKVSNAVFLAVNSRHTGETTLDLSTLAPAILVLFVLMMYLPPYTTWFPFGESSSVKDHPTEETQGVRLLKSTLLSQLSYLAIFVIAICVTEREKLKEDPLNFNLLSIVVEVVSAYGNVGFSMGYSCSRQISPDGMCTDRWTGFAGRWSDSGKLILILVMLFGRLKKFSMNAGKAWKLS
Assay: two-electrode voltage clamp, Xenopus oocytes
Assay type: cell-based
Conditions: 500 µM quinine; 1 mM external Na+ (glutamate salt); pH 5.5; inward and outward currents

`C=C[C@H]1CN2CC[C@H]1C[C@H]2[C@H](O)c1ccnc2ccc(OC)cc12` [quinine] was tested. Which “% decrease of currents at 500 μM” value did it give?
Its value is ~ 25%.
